# According to US20230241000A1, “GSK3 INHIBITOR-LOADED NANO FORMULATIONS AS A CANCER IMMUNOTHERAPEUTIC” (The Regents of the University of California, priority 2020, published 2023):
# Entries after “also recorded” stand apart in the source; their conditions may differ. Where two headings read alike, the source gives them in different places.
# Assays:
# [1] = Remote loading of GSK3 inhibitors into silicasomes: encapsulation efficiency and loading capacity; format: physicochemical; details: for encapsulation efficiency in silicasomes (in words): remote loading at 5, 10 or 20 feed weight %
# Experimental: The overall scheme for the synthesis of silicasome carriers to deliver GSK3 inhibitors is outlined in FIG. 3. Briefly, a large batch (i.e. 120 g) synthesis of bare particles was carried out as previously, yielding ˜70 nm MSNPs (FIG. 3, panel A) (22). […] 20 mg soaked-in MSNPs were then used together with an ethanol suspended lipid solution, comprised of a mixture of 60 mg DSPC:Cholesterol:PE-PEG2000 (molar ratio of 6:4:0.3), for coating with a lipid bilayer by a flow through sonication procedure (FIG. 3, panel B). Following the removal of the non-encapsulated trapping agent, AZD2858, AZD1080, LY2090314, and 1-Azakenpaullone were dissolved in 0.9% saline and incubated with the silicasome carrier to assess the loading capacity in response to different feed weight percentages (FIG. 11).
# Four GSK3 inhibitor-laden silicasome formulations were analyzed to assess encapsulation efficiency and loading capacity. 100 μL of the silicasomes suspension at 10 mg/mL in 0.9% NaCl (1 mg silicasomes) was added to AZD1080, AZD2858, LY2090314, and 1-azakenpaullone solutions, which were prepared by adding 50, 100 or 200 μg of each inhibitor to 900 μL water. These drug mass quantities provided feed weight percentages of 5, 10, and 20%, in comparison to the silicasome mass. Following execution of the remote loading procedure as detailed above, the crude solutions were used to assess absorbance in a glass bottom 96-well plate (Total Drug Absorbance). Silicasomes were centrifuged at 21,000×g for 15 minutes to pellet the particles. After removal of the supernatant, the silicasomes were re-suspended in aa fresh 0.9% NaCl solution. This was repeated three times to remove any unloaded inhibitor. The silicasome solution was then sampled and absorbance was measured to determine Loaded Drug Absorbance. Concentration-matched unloaded ‘blank’ silicasomes also had absorbance measured (Silicasome Blank Absorbance). Encapsulation efficiency was calculated by the following formula: […]
# All measurements were taken using a SpectraMax M5 plate reader (Molecular Devices). All solutions were diluted 1/10 in 0.9% NaCl solution prior to absorbance reads. The absorbances used for each compound were: 418 nm for AZD1080, 383 nm for AZD2858, 213 nm for LY2090314, and 334 nm for 1-azakenpaullone.
# [2] = system: GSK3; details: cited from earlier work
# [3] = Phase 2 candidate, trial abandoned; literature (54); cited from earlier work
# [4] = system: MC38 colon cancer; assay: MC38 syngeneic colon cancer model, subcutaneous tumor growth; format: in vivo, C57BL/6 mice; details: MC38; three administrations; n=15 per group
# Experimental: Treatment was repeated every three days for a total of three administrations. Mice were sacrificed four days after the final treatment. The study was executed as two separate experiments, using animal group sizes of n=6 and n=9, respectively. […] The first set of analyses was performed on the tumor volume growth curves (FIG. 5, panel A), impact on final tumor volumes (FIG. 5, panel B) and tumor weight (FIG. 5, panel C) at the time of sacrifice.
# MC38 cells, stably transfected with a luciferase vector, were inoculated into the right flank of C57BL/6 mice, using 0.7×10^6 cells in 40% Matrigel 1×PBS solution. Tumors were allowed to grow to a size of ˜50 mm^3 prior to the initiation of treatment, approximately 14 days after initial inoculation. Mice with outlier tumor sizes (either too small or too large) were excluded from further study. The remaining animals were randomly assigned to the different treatment groups. Mice were treated with three injections, set three days apart, and were sacrificed 4 days after the final treatment administration. […] Two separate experiments were performed, the first with n=6 mice per group and the second with n=9 animals.
# [5] = system: T-bet; details: T-cells; literature (10, 13, 14); cited from earlier work
# [6] = system: CD8+ T-cells in MC38 tumors; assay: Flow cytometry of tumor-infiltrating CD8+ T-cells in MC38 tumors; format: in vivo, C57BL/6 mice
# Source text: In order to address the change in the immunological landscape with treatment, we asked whether sAZD1080 could impact the immune parameters that underpin treatment efficacy for immune checkpoint blocking antibodies. These include the CD8^+ cell number, the abundance of PD-1 expression on these cells, perforin release and the generation of cancer cell death, as reflected by activated caspase 3. For the first analysis, tumor cell digests were used to assess the number of CD8^+/CD107a^+/granzyme B^+ lymphocytes by flow cytometry (14, 30). […] In order to assess the status of PD-1 expression on CD8+ cells, flow cytometry was used to assess the % of […] cells in the tumor digests (14, 31).
# Tumors were harvested from MC38 mice after sacrifice. Tumors larger than 100 mm^3 were divided in two, with one half preserved for histology and the other half used to conduct flow cytometry. To prepare samples for flow cytometry, tumor chunks of 2-3 mm^3 were incubated in an enzyme cocktail (1 mg/mL collagenase type IV, 2000 U DNase type IV, 0.1 mg/mL hyaluronidase type V in 1×HBSS) for 1 hour, and the digests passed through a 70 μm nylon filter. Cells were pelleted and washed in HBSS.
# Cells were diluted in cell staining buffer, pelleted by centrifuging at 350×g for 5 minutes, and washed twice. […]
# [7] = system: Tbx21 expression; assay: RT-qPCR of Tbx21 in anti-CD3 activated primary murine T-cells; format: cell-based, C57BL/6 mouse; details: 10 μM, 72 hours, normalized against Gapdh
# Experimental: (§1) This is compatible with the translational expression of T-bet, a transcription factor that interferes in PD-1 expression (FIG. 1, panel B).
# (§2) Wells of a 96-well tissue culture plate were coated with anti-mouse CD3 antibody (Ultra-LEAF, Biolegend). 7.5 μL of 1 mg/mL antibody solution was diluted in 1 mL of 1×PBS, before 50 μL of the dilution was added to each plate well for 2 hours at 37° C. The wells were then thoroughly washed 3× with 1×PBS.
# (§3) T-cells were extracted from C57BL/6 mouse spleens, using a standard procedure with minor modifications (71). Two mouse spleens were mechanically disrupted and the released cells were passed through a 70 μm filter. Red blood cells were lysed using RBC lysis buffer (eBioscience) at 4° C. for 5 minutes. 10 mL of 1×PBS was added to stop the lysis process, following which cells were pelleted at 300×g for 5 minutes. […]
# (§4) Cells were collected and RNA was extracted using Direct-zol RNA MiniPrep Plus kits (Zymo), as per the manufacturer's instructions. Extracted RNA was converted into cDNA using SuperScript III First-Strand Synthesis System kits (Invitrogen). cDNA from treated T-cells was analyzed by RT-PCR using a LightCycler 480 instrument (Roche) and the LightCycler 480 SYBR Green I Master kit (Roche), per manufacturer's instructions. cDNA was analyzed using forward and reverse primers for Pdcd1, Tbx21, and Gapdh as a control, as described previously (10, 14). […]
# [8] = system: Pdcd1 expression; assay: RT-qPCR of Pdcd1 in anti-CD3 activated primary murine T-cells; format: cell-based, C57BL/6 mouse; details: 10 μM, 72 hours, normalized against Gapdh
# Experimental: as §1, §2, §3, §4
# [9] = values provided by chemical vendors (Cayman Chemical, Selleck Chemicals)
compound,measurement,setting,value
O=C1Cc2c([nH]c3ccc(Br)cc23)-c2ncccc2N1 [1-Azakenpaullone],encapsulation efficiency in silicasomes (in words),[1],comparatively low
CHIR98014,IC50,[2],0.00058 µM
Cc1[nH]c2ccccc2c1C1=C(NCCc2ccc(F)cc2)C(=O)N(C)C1=O [IM-12],IC50,[2]; [9],0.053 µM
Indirubin-3′-monoxime,IC50,[2]; [9],0.022 µM
O=c1cc(-c2ccc(O)c(O)c2O)oc2ccccc12 [2-D08],IC50,[2]; [9],0.011 µM
Nc1cccc(-c2cc3c(Oc4cccc(O)c4)ncnc3[nH]2)c1 [TWS119],IC50,[2]; [9],0.04 µM
O=C1NC(=O)C(c2cnc3ccccn23)=C1c1cn2c3c(cc(F)cc13)CN(C(=O)N1CCCCC1)CC2 [LY2090314],IC50,[2]; [9],0.0009 µM
same,encapsulation efficiency in silicasomes (in words),[1],moderate efficiency
same,PK and bioavailability in clinical trial,[3],poor PK and drug bioavailability
CN1CCN(S(=O)(=O)c2ccc(-c3cnc(N)c(C(=O)Nc4cccnc4)n3)cc2)CC1 [AZD2858],solubility during remote loading (in words),"[1]; dissolved in 0.9% saline, incubated with silicasome carrier, feed weight %",precipitated; also recorded: poor solubility
same,encapsulation efficiency in silicasomes (in words),[1],moderate efficiency
O=C1NC(=O)C(c2ccccc2[N+](=O)[O-])=C1Nc1ccc(O)c(Cl)c1 [SB415286],number of tumor-free animals at time of sacrifice (out of 15),[4],1/15
same,expression of T-bet,[5],increase
same,% of CD8/PD-1+ cells in the tumor digests,[6],did not impact
same,Tbx21 mRNA expression,[7],increased
same,reduction in Pdcd1 mRNA expression,[8],~2.2 fold
BIO-acetoxime,IC50,[2]; [9],0.01 µM
